Data as given in US20200148646A1, “6-S[…] 7-S[…] ANALOGS AND THE USE THEREOF” (Purdue Pharma, L.P., priority 2013, published 2020).

Key:
Assay type in all cases: biochemical
μ-opioid receptor [1] = molecular target: T1, μ-opioid receptor (Homo sapiens, UniProt P35372); assay: μ-opioid receptor [35S]GTPγS functional assay, U-2 OS cells; design: host or cells: U-2 OS cells; settings: for Emax: U2-OS cells, relative to DAMGO
Protocol: (§1) [^35S]GTPγS functional assays were conducted using freshly thawed μ-receptor membranes prepared in-house from a cell line expressing recombinant opioid receptor in a HEK-293, CHO or U-2 OS cell background, or purchased from a commercial source (Perkin Elmer, Shelton, Conn.; or DiscovRx, Fremont, Calif.). Assay reactions were prepared by sequentially adding the following reagents to binding buffer (100 mM NaCl, 10 mM MgCl2, 20 mM HEPES, pH 7.4) on ice (final concentrations indicated): membrane protein (0.026 mg/mL), saponin ([…]), GDP ([…]) and [^35S]GTPγS (0.20 nM; Perkin Elmer, Shelton, Conn.). The prepared membrane solution (190 l/well) was transferred to 96-shallow well polypropylene plates containing 10 μl of 20× concentrated stock solutions of the agonist [D-Ala^2, N-methyl-Phe^4 Gly-ol^5]-enkephalin (DAMGO) prepared in dimethyl sulfoxide (DMSO). Plates were incubated for 30 min at about 25° C. with shaking. Reactions were terminated by rapid filtration onto 96-well Unifilter GF/B filter plates (Perkin Elmer, Shelton, Conn.) using a 96-well tissue harvester (Perkin Elmer, Shelton, Conn.) followed by three filtration washes with 200 μl of ice-cold wash buffer (10 mM NaH2PO4, 10 mM Na2HPO4, pH 7.4). Filter plates were subsequently dried at 50° C. for 2-3 hr. BetaScint scintillation cocktail (Perkin Elmer, Shelton, Conn.) was added (50 μl/well) and plates were counted using a Packard Top-Count for 1 min/well. Data were analyzed using the sigmoidal dose-response curve fitting functions in GraphPad PRISM v. 3.0, or an in-house function for non-linear, sigmoidal dose-response curve-fitting.
(§2) μ GTP EC50 is the concentration of a compound providing 50% of the maximal response for the compound at a μ-opioid receptor.
(§3) μ GTP Emax (%) is the maximal effect elicited by a compound relative to the effect elicited by DAMGO, a standard agonist. Generally, the μ GTP Emax (%) value measures the efficacy of a compound to treat or prevent pain or other Conditions.
(§4) In TABLE 2A, activity response of certain Compounds of the Invention at the μ- and κ-opioid receptors using U-2 OS cells was determined as described above for functional assays.

human κ opioid receptor = human κ opioid receptor (Homo sapiens, UniProt P41145); assay: κ-opioid receptor [35S]GTPγS functional assay, U-2 OS cells; design: expressed in transfected cells; host or cells: U-2 OS cells (in-house membranes); settings: for Emax: U2-OS cells, relative to U69,593
Sequence of human κ opioid receptor (P41145 whole entry): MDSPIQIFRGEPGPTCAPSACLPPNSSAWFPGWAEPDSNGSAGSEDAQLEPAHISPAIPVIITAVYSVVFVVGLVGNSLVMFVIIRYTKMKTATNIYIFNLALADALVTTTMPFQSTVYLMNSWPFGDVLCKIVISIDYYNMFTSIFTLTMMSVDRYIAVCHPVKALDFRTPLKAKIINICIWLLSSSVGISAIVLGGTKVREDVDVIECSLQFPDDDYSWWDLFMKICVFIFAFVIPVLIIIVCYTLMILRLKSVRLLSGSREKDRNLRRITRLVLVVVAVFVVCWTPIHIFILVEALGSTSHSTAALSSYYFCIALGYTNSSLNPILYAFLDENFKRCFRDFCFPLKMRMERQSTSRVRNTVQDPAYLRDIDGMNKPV
Protocol: Membranes from recombinant HEK-293 cells, CHO or U-2 OS cells expressing the recombinant human K opioid receptor (K) were prepared by lysing cells in ice cold hypotonic buffer (2.5 mM MgCl2, 50 mM HEPES, pH 7.4) (10 mL/10 cm dish) followed by homogenization with a tissue grinder/Teflon pestle. Functional [^35S]GTPγS binding assays were conducted as follows. K opioid receptor membrane solution was prepared by sequentially adding final concentrations of 0.026 μg/μl κ membrane protein (in-house), 10 μg/mL saponin, 3 μM GDP and 0.20 nM [^35S]GTPγS to binding buffer (100 mM NaCl, 10 mM MgCl2, 20 mM HEPES, pH 7.4) on ice. The prepared membrane solution (190 μl/well) was transferred to 96-shallow well polypropylene plates containing 10 μl of 20× concentrated stock solutions of agonist prepared in DMSO. Plates were incubated for 30 min at a temperature of about 25° C. with shaking. Reactions were terminated by rapid filtration onto 96-well Unifilter GF/B filter plates (Perkin Elmer, Shelton, Conn.) using a 96-well tissue harvester (Packard) and followed by three filtration washes with 200 μl ice-cold binding buffer (10 mM NaH2PO4, 10 mM Na2HPO4, pH 7.4). Filter plates were subsequently dried at 50° C. for 2-3 hours. Fifty μl/well scintillation cocktail (Perkin Elmer, Shelton, Conn.) was added and plates were counted in a Packard Top-Count for 1 min/well.
κ GTP EC50 is the concentration of a compound providing 50% of the maximal response for the compound at a κ receptor.
κ GTP Emax (%) is the maximal effect elicited by a compound relative to the effect elicited by U69,593.
as §4

μ-opioid receptor [2] = molecular target: T1, μ-opioid receptor; assay: μ-opioid receptor [35S]GTPγS functional assay, HEK-293 or CHO cells; settings: for Emax: HEK-293 or CHO cells, relative to DAMGO
Protocol: as §1, §2, §3
In TABLE 2, activity response of certain Compounds of the Invention at the μ- and κ-opioid receptors using HEK-293 or CHO cells was determined as described above for functional assays.

T1 sequence (P35372 whole entry, species assumed): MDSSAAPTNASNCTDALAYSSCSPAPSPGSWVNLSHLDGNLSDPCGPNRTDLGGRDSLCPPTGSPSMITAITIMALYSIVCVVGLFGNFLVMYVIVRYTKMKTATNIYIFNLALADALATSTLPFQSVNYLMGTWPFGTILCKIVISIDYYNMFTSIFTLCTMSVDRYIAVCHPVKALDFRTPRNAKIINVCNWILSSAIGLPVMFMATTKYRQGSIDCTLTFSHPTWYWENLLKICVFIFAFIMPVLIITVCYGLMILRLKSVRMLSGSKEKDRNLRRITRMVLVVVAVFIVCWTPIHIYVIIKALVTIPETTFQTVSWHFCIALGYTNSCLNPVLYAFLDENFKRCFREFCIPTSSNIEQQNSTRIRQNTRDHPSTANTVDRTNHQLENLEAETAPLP

Structure (SMILES)	EC50 (μ-opioid receptor [1]) [nM]	Emax (μ-opioid receptor [1]) [%]	EC50 (human κ opioid receptor) [nM]	Emax (human κ opioid receptor) [%]	EC50 (μ-opioid receptor [2]) [nM]	Emax (μ-opioid receptor [2]) [%]
CC[C@H](C)C(=O)N[C@H]1C[C@@]2(O)[C@H]3Cc4ccc(O)cc4[C@@]2(CCN3CC2CC2)C[C@H]1O [Compound 59, (S)—N-((4bR,6R,7S,8aS,9R)-11-(cyclopropylmethyl)-3,6,8a-trihydroxy-6,7,8,8a,9,10-hexahydro-5H-9,4b-(epiminoethano)phenanthren-7-yl)-2-methylbutanamide]	45 ± 8.96	22.3 ± 1.45	35.6 ± 4.27	98.3 ± 3.18		
CC(C)CC(=O)N[C@H]1C[C@@]2(O)[C@H]3Cc4ccc(O)cc4[C@@]2(CCN3CC2CC2)C[C@H]1O [Compound 60, N-((4bR,6R,7S,8aS,9R)-11-(cyclopropylmethyl)-3,6,8a-trihydroxy-6,7,8,8a,9,10-hexahydro-5H-9,4b-(epiminoethano)phenanthren-7-yl)-3-methylbutanamide]	54.7 ± 8.1	25.3 ± 0.33	31.4 ± 3.7	106 ± 6.06		
CC(C)CCC(=O)N[C@H]1C[C@@]2(O)[C@H]3Cc4ccc(O)cc4[C@@]2(CCN3CC2CC2)C[C@H]1O [Compound 61, N-((4bR,6R,7S,8aS,9R)-11-(cyclopropylmethyl)-3,6,8a-trihydroxy-6,7,8,8a,9,10-hexahydro-5H-9,4b-(epiminoethano)phenanthren-7-yl)-4-methylpentanamide]	61.6 ± 5.41	26.7 ± 0.88	15.4 ± 2.43	97.7 ± 2.19		
O=C(N[C@H]1C[C@@]2(O)[C@H]3Cc4ccc(O)cc4[C@@]2(CCN3CC2CC2)C[C@H]1O)C1CC1 [Compound 64, N-((4bR,6R,7S,8aS,9R)-11-(cyclopropylmethyl)-3,6,8a-trihydroxy-6,7,8,8a,9,10-hexahydro-5H-9,4b-(epiminoethano)phenanthren-7-yl)cyclopropanecarboxamide]	112 ± 19.3	7.33 ± 0.33	48.3 ± 3.1	93.7 ± 2.33		
O=C(N[C@H]1C[C@@]2(O)[C@H]3Cc4ccc(O)cc4[C@@]2(CCN3CC2CC2)CC1O)C1CCCCC1 (stereo partly drawn) [Compound 65, N-((4bR,7S,8aS,9R)-11-(cyclopropylmethyl)-3,6,8a-trihydroxy-6,7,8,8a,9,10-hexahydro-5H-9,4b-(epiminoethano)phenanthren-7-yl)cyclohexanecarboxamide]	68.4 ± 13	26.7 ± 0.67	15.9 ± 2.09	106 ± 1.89		
O=C(N[C@H]1C[C@@]2(O)[C@H]3Cc4ccc(O)cc4[C@@]2(CCN3CC2CC2)C[C@H]1O)c1ccccc1 [Compound 66, N-((4bR,6R,7S,8aS,9R)-11-(cyclopropylmethyl)-3,6,8a-trihydroxy-6,7,8,8a,9,10-hexahydro-5H-9,4b-(epiminoethano)phenanthren-7-yl)benzamide]	114 ± 14.5	15 ± 0.58	39.2 ± 4.27	71.7 ± 1.2		
CC(C)C[C@H]1C[C@@]2(O)[C@H]3Cc4ccc(O)cc4[C@@]2(CCN3CC2CC2)C[C@H]1O [Compound 67, (4bR,6R,7S,8aS,9R)-11-(cyclopropylmethyl)-7-isobutyl-5,6,7,8,9,10-hexahydro-8aH-9,4b-(epiminoethano)phenanthrene-3,6,8a-triol]	> 20000	2	55.5 ± 8.5	89.3 ± 1.67		
Oc1ccc2c(c1)[C@]13CCN(CC4CC4)[C@H](C2)[C@]1(O)C[C@H](Cc1ccccc1)[C@H](O)C3 [Compound 103, (4bR,6R,7S,8aS,9R)-7-benzyl-11-(cyclopropylmethyl)-5,6,7,8,9,10-hexahydro-8aH-9,4b-(epiminoethano)phenanthrene-3,6,8a-triol]					> 20000	1
CC(C)C(=O)N[C@H]1C[C@@]2(O)[C@H]3Cc4ccc(O)cc4[C@@]2(CCN3C)C[C@H]1O [Compound 104, N-((4bR,6R,7S,8aS,9R)-3,6,8a-trihydroxy-11-methyl-6,7,8,8a,9,10-hexahydro-5H-9,4b-(epiminoethano)phenanthren-7-yl)isobutyramide]					15500 ± 1320	23 ± 1.53
CC(C)CCC(=O)N[C@H]1C[C@@]2(O)[C@H]3Cc4ccc(O)cc4[C@@]2(CCN3C)CC1O (stereo partly drawn) [Compound 105, 4-methyl-N-((4bR,7S,8aS,9R)-3,6,8a-trihydroxy-11-methyl-6,7,8,8a,9,10-hexahydro-5H-9,4b-(epiminoethano)phenanthren-7-yl)pentanamide]					3650 ± 294	77 ± 2.65
CC(C)CCCC(=O)N[C@H]1C[C@@]2(O)[C@H]3Cc4ccc(O)cc4[C@@]2(CCN3C)CC1O (stereo partly drawn) [Compound 106, 5-methyl-N-((4bR,7S,8aS,9R)-3,6,8a-trihydroxy-11-methyl-6,7,8,8a,9,10-hexahydro-5H-9,4b-(epiminoethano)phenanthren-7-yl)hexanamide]					635 ± 43.7	82.3 ± 1.86
CN(C)[C@@H]1CC[C@@]2(O)[C@H]3Cc4ccc(O)cc4[C@@]2(CCN3C)C1 [Compound 107, (4bR,6R,8aS,9R)-6-(dimethylamino)-11-methyl-5,6,7,8,9,10-hexahydro-8aH-9,4b-(epiminoethano)phenanthrene-3,8a-diol]					1290 ± 20.3	36.3 ± 1.2
CN1CC[C@]23C[C@@H](O)[C@@H](NC(=O)c4ccccc4)C[C@@]2(O)[C@H]1Cc1ccc(O)cc13 [Compound 108, N-((4bR,6R,7S,8aS,9R)-3,6,8a-trihydroxy-11-methyl-6,7,8,8a,9,10-hexahydro-5H-9,4b-(epiminoethano)phenanthren-7-yl)benzamide]					2190 ± 211	48.4 ± 0.66
CC(C)CC[C@H]1C[C@@]2(O)[C@H]3Cc4ccc(O)cc4[C@@]2(CCN3C)C[C@H]1O [Compound 109, (4bR,6R,7S,8aS,9R)-7-isopentyl-11-methyl-5,6,7,8,9,10-hexahydro-8aH-9,4b-(epiminoethano)phenanthrene-3,6,8a-triol]					1870 ± 203	41.1 ± 3.25
CN1CC[C@]23CC(O)[C@@H](CC4CCCC4)C[C@@]2(O)[C@H]1Cc1ccc(O)cc13 (stereo partly drawn) [Compound 110, (4bR,7S,8aS,9R)-7-(cyclopentylmethyl)-11-methyl-5,6,7,8,9,10-hexahydro-8aH-9,4b-(epiminoethano)phenanthrene-3,6,8a-triol]					> 20000	42.7 ± 32.7
CN(C)CC(=O)N[C@H]1C[C@@]2(O)[C@H]3Cc4ccc(O)cc4[C@@]2(CCN3CC2CC2)C[C@@H]1O [Compound 111, N-((4bR,6S,7S,8aS,9R)-11-(cyclopropylmethyl)-3,6,8a-trihydroxy-6,7,8,8a,9,10-hexahydro-5H-9,4b-(epiminoethano)phenanthren-7-yl)-2-(dimethylamino)acetamide]					> 20000	1.67 ± 0.67
CC(C)C(=O)N[C@H]1C[C@H]2[C@H]3Cc4ccc(O)cc4[C@@]2(CCN3CC2CC2)C[C@H]1O [Compound 112, N-((4bS,6R,7S,8aR,9R)-11-(cyclopropylmethyl)-3,6-dihydroxy-6,7,8,8a,9,10-hexahydro-5H-9,4b-(epiminoethano)phenanthren-7-yl)isobutyramide]					66.7 ± 27.5	8.61 ± 0.31
